The source of these data is patent publication US20100144767A1, “Use of sodium channel blockers for the treatment of visceral pain or pain caused by cancer treatment” (priority 2005, published 2010).

The structures appear in SMILES notation. “And” between values parts separate entries of the source, which are not always exact repeats. Equal values may be shown once.

Assay [1] relates to postoperative pain (incised hind paw withdrawal latency). The assay can be described thus: Postoperative pain, thermal stimulus, four days of pre-treatment. The assay is classed as in vivo, rats. As to the method: The studied compounds (dypirone at 40 mg/kg and tetrodotoxin at 0, 3, 4 μg/kg) were administered subcutaneously to groups of 12 male rats twice daily for 4 days. On the morning of Day 5, an incision was made in the hind paw of the rats. One hour later, the compounds were administered again and 30 minutes later, a thermal stimulus was applied in the incised paw and the latency to withdraw the hind paws was recorded.

Assay [2] has the same test system. The assay can be described thus: Postoperative pain, thermal stimulus, acute treatment (hind paw incision). The class given is in vivo, rats. To be noted: Rattus norvegicus, iv.
Assay [3] concerns capsaicin-induced nociceptive behaviours. The assay can be described thus: Visceral pain model: capsaicin solution delivered to the colon, nociceptive behaviours counted for 30 min. The arrangement: species or system mice. As to conditions: mouse, in vivo.
For assay [4], the system named is carrageenan-induced inflammatory pain. The arrangement: species or system SD rats. As to conditions: rat, in vivo.
Assay [5] concerns pain (visceral pain, pain caused by therapy). To be noted: human, in vivo.
Assay [6] concerns formalin-induced inflammation. The arrangement: species or system rats. To be noted: rat, in vivo.
Assay [7] concerns moderate to severe pain associated with cancer. Further details: species or system human. To be noted: in vivo.

Consider `Cc1c(N(C)CS(=O)(=O)[O-])c(=O)n(-c2ccccc2)n1C.[Na+]` [Dypirone, reference compound], for which, in assay [1] (40 mg/kg s.c. b.i.d., four days of pre-treatment), the antinociceptive activity is on record as 40%.

`CN1CC[C@]23c4c5ccc(O)c4O[C@H]2[C@@H](O)C=C[C@H]3[C@H]1C5` [Morphine]: in assay [2], it took a dose of 0.59 mg/kg to reach the 50% effect level (ED50). In assay [3], the “effects on capsaicin-induced nociceptive behaviours versus control” value is 54.8% and 92.5% and 100%.

For the molecule `N=C1NC(O)C2C3OC4(O)OC(C(O)C2(N1)C4O)C3(O)CO` (stereo not drawn) [Tetrodotoxin, octahydro-12-(hydroxymethyl)-2-imino-5,9:7,10a-dimethano-10aH-[1,3]dioxocino[6,5-d]pyrimidine-4,7,10,11,12-pentol], the “effect upon the degree of inflammation” value in assay [4] is listed as “does not have any effect”. Besides, the “nociceptive threshold, Randall-Selitto test (paw pressure)” value in assay [4] (sc) is listed as “higher nociceptive threshold”. In addition, in assay [5], the analgesic response result is listed as “no analgesic response”; the “decrease in current and average pain intensity” value is on record as “about 2 point”; the “most pain relief percentage” value was 89%; the pain score is 7 /10 and 4 /10. Further, the relief of pain result in assay [5] is on record as “complete relief of their pain”. The same molecule registered an effective dosage in assay [6] of 2.5 µg/mg. In assay [7], this molecule displayed an impression of change of 1 and a total response day of 66 days. The antinociceptive activity in assay [1] (rat, in vivo) is 35% and 39%. Further, the “effects on capsaicin-induced nociceptive behaviours versus control” value in assay [3] (sc) is 30% and 58.8%.
